Results published in patent US20240208909A1, “SUBSTITUTED QUINOLINE DERIVATIVES HAVING SOS1 INHIBITION ACTIVITIES AND USES THEREOF” (Accutar Biotechnology Inc., priority 2022, published 2024).
pIC50: −log10 of the molar value.

Assays:
[1] = molecular target: SOS1/KRAS-G12D (Homo sapiens (Human), UniProt Q07889); assay: SOS1/KRAS-G12D binding inhibition assay (AlphaScreen); settings: GST-SOS1 and 6*His KRAS-G12D, read-out: KrasG12D/SOS1 binding IC50
Summary of the method: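 GST-SOS1 (5 nM) pre-incubated 30 min with His6-KRAS-G12D (50 nM) in HEPES pH 7.4, NaCl, DTT, MgCl2, Tween-20, BSA; compound in 2% DMSO then added for 30 min at 4° C. GSH donor and Ni-NTA acceptor AlphaScreen beads, 2 h at 4° C; background-corrected % inhibition versus DMSO, IC50 by variable-slope nonlinear regression.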

[2] = tested on: Phospho-ERK1/2 in DLD1 cells; assay: Phospho-ERK1/2 expression inhibition in DLD1 cells; assay type: cell-based; settings: Homo sapiens, DLD-1, 4 hours, read-out: DLD1 pERK IC50
Summary of the method: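 DLD1 cells (15,000/well) were plated overnight, then exposed to compounds for 4 h at 37 °C. Cells were formaldehyde-fixed and methanol-permeabilized. Phospho-ERK1/2 was detected in-cell with rabbit anti-phospho-ERK1/2 and an IRDye 800CW secondary antibody, imaged on a LI-COR Odyssey.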

[3] = tested on: K562 cells; assay: Cell growth inhibition of K562 cells (CellTiter-Glo); assay type: cell-based; settings: Homo sapiens, 120 h, 5 days

Chain of SOS1/KRAS-G12D (Q07889 564-1049 limits assumed): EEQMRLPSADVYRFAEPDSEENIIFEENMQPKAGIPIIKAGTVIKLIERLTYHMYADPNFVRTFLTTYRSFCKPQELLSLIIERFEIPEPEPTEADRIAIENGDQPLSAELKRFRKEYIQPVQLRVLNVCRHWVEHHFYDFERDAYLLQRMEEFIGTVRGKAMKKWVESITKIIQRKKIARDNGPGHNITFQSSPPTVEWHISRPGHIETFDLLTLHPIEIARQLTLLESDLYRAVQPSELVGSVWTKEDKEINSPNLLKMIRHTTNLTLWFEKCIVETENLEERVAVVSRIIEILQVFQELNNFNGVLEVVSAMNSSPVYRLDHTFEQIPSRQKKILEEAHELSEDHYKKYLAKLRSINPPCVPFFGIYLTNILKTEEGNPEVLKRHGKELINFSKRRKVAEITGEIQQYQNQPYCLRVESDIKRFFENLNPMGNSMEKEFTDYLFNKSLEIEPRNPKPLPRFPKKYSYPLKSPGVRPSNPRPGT

| Structure (SMILES) | pIC50 [1] | pIC50 [2] | GI50 [3] |
| --- | --- | --- | --- |
| Cc1c([C@@H](C)Nc2ccnc3ccc(N4CCN[C@H](C)C4)cc23)cccc1C(F)(F)F [Compound 50, N-((R)-1-(2-methyl-3-(trifluoromethyl)phenyl)ethyl)-6-((R)-3-methylpiperazin-1-yl)quinolin-4-amine] | 7.00 to 8.00 | < 6.30 | 100 to 500 nM |
| Cc1c([C@@H](C)Nc2ccnc3ccc(N4CCC(N(C)C)CC4)cc23)cccc1C(F)(F)F [Compound 32, (R)-6-(4-(dimethylamino)piperidin-1-yl)-N-(1-(2-methyl-3-(trifluoromethyl)phenyl)ethyl)quinolin-4-amine] | 7.00 to 8.00 | < 6.30 | 100 to 500 nM |
| Cc1c([C@@H](C)Nc2ccnc3ccc(N4CC5CC(C4)O5)cc23)cccc1C(F)(F)F [Compound 19, 6-(6-oxa-3-azabicyclo[3.1.1]heptan-3-yl)-N-((R)-1-(2-methyl-3-(trifluoromethyl)phenyl)ethyl)quinolin-4-amine] | < 7.00 | < 6.30 | 100 to 500 nM |
| CC(=O)N1C[C@@H](C)N(c2ccc3nccc(N[C@H](C)c4cccc(C(F)(F)F)c4C)c3c2)C[C@@H]1C [Compound 57, 1-((2S,5R)-2,5-dimethyl-4-(4-(((R)-1-(2-methyl-3-(trifluoromethyl)phenyl)ethyl)amino)quinolin-6-yl)piperazin-1-yl)ethan-1-one] | < 7.00 | < 6.30 | 100 to 500 nM |
| CC(C)C(=O)N1CCN(c2ccc3nccc(N[C@H](C)c4cccc(C(F)F)c4F)c3c2)CC1 [Compound 17, (R)-1-(4-(4-((1-(3-(difluoromethyl)-2-fluorophenyl)ethyl)amino)quinolin-6-yl)piperazin-1-yl)-2-methylpropan-1-one] | ≥ 8.00 | ≥ 6.82 | 100 to 500 nM |
| COC(=O)N1CCC(F)(c2cc3c(N[C@H](C)c4cccc(C(F)(F)F)c4C)ccnc3cc2OC)CC1 [Compound 74, Methyl (R)-4-fluoro-4-(7-methoxy-4-((1-(2-methyl-3-(trifluoromethyl)phenyl)ethyl)amino)quinolin-6-yl)piperidine-1-carboxylate] | 7.00 to 8.00 | 6.30 to 6.82 | 100 to 500 nM |
| CC(=O)N1CCC(O)(c2ccc3nccc(N[C@H](C)c4cccc(C(F)F)c4F)c3c2)C1 (stereo partly drawn) [Compound 83, 1-(3-(4-(((R)-1-(3-(difluoromethyl)-2-fluorophenyl)ethyl)amino)quinolin-6-yl)-3-hydroxypyrrolidin-1-yl)ethan-1-one] | ≥ 8.00 | 6.30 to 6.82 | ≤ 100 nM |
| Cc1c([C@@H](C)Nc2c(C#N)cnc3ccc(N4CCN(C(=O)C5CCOC5)CC4)cc23)cccc1C(F)(F)F (stereo partly drawn) [Compound 3, 4-(((R)-1-(2-methyl-3-(trifluoromethyl)phenyl)ethyl)amino)-6-(4-(tetrahydrofuran-3-carbonyl)piperazin-1-yl)quinoline-3-carbonitrile] | < 7.00 | < 6.30 | > 500 nM |
| C[C@@H](Nc1ccnc2ccc(N3CCN(C(=O)[C@@H]4CCOC4)CC3)cc12)c1cccc(C(F)F)c1F [Compound 15, (4-(4-(((R)-1-(3-(difluoromethyl)-2-fluorophenyl)ethyl)amino)quinolin-6-yl)piperazin-1-yl)((R)-tetrahydrofuran-3-yl)methanone] | ≥ 8.00 | ≥ 6.82 | 100 to 500 nM |
| CC(C)C(=O)N1CCC(F)(c2ccc3nccc(N[C@H](C)c4cccc(C(F)F)c4F)c3c2)CC1 [Compound 81, (R)-1-(4-(4-((1-(3-(difluoromethyl)-2-fluorophenyl)ethyl)amino)quinolin-6-yl)-4-fluoropiperidin-1-yl)-2-methylpropan-1-one] | ≥ 8.00 | ≥ 6.82 | ≤ 100 nM |
| C[C@@H](Nc1ccnc2ccc(N3CCC(N)CC3)cc12)c1cccc(C(F)F)c1F [Compound 49, (R)-6-(4-aminopiperidin-1-yl)-N-(1-(3-(difluoromethyl)-2-fluorophenyl)ethyl)quinolin-4-amine] | ≥ 8.00 | < 6.30 | 100 to 500 nM |
| C[C@@H](Nc1ccnc2ccc(N3CC[C@H](N)C3)cc12)c1cccc(C(F)F)c1F [Compound 18, 6-((S)-3-aminopyrrolidin-1-yl)-N-((R)-1-(3-(difluoromethyl)-2-fluorophenyl)ethyl)quinolin-4-amine] | 7.00 to 8.00 | < 6.30 | > 500 nM |
| CN[C@@H]1CCN(c2ccc3nccc(N[C@H](C)c4cccc(C(F)F)c4F)c3c2)C1 [Compound 44, N-((R)-1-(3-(difluoromethyl)-2-fluorophenyl)ethyl)-6-((R)-3-(methylamino)pyrrolidin-1-yl)quinolin-4-amine] | ≥ 8.00 | < 6.30 | ≤ 100 nM |
| CC(=O)N1CCN(c2ccc3nccc(N[C@H](C)c4cccc(C(F)(F)F)c4C)c3c2)C[C@H]1C [Compound 51, 1-((R)-2-methyl-4-(4-(((R)-1-(2-methyl-3-(trifluoromethyl)phenyl)ethyl)amino)quinolin-6-yl)piperazin-1-yl)ethan-1-one] | 7.00 to 8.00 | < 6.30 | 100 to 500 nM |
